Laboratory results: patent publication EP0565593B1, “REDUCING PESTICIDAL INTERACTIONS IN CROPS” (priority 1990, dated 1992)
Values joined by “and” are separate entries in the source; they are usually repeats but may differ in a detail not shown here. Identical values can stand only once. Like-named read-outs stand apart in the source and are kept apart here.

Legend:
Giant foxtail (GIFT) = assay: whole plant or invertebrate; format: in vivo; details: for inhibition at 140 g/ha / inhibition at 20 g/ha: Setaria faberi, iv; for inhibition at 20 g/ha: XRD-498 0.02 Kg/Ha alone
Corn [1] = system: Corn
Corn [2] = assay: whole plant or invertebrate; details: Zea mays, iv; for inhibition at 20 g/ha: read-out: % Inhibition Corn, XRD-498 0.02 Kg/Ha alone
Velvetleaf (VELE) [3] = assay: whole plant or invertebrate; format: in vivo, Abutilon theophrasti; details: for inhibition at 140 g/ha / inhibition at 20 g/ha: Abutilon theophrasti, iv; for inhibition at 20 g/ha: XRD-498 0.02 Kg/Ha alone
SJCA = assay: Greenhouse test Procedure IV: herbicide, biocide and antidote PPI, weed SJCA (Examples 53-55; Tables 52-54); format: in vivo; details: all PPI
Source text: The test in this example paralleled that in Example 51, except the procedure was according to Procedure IV above and the herbicides used were No. 1 (MON-12000); No. 21 (XRD-498) and, again, No. 18 (PURSUIT); the biocide was, again, MOCAP®. Observations were taken thirteen (13) days after PPI treatment with biocide and antidote.
This test was identical to that in Example 52, except for use of a different biocide, DIAZINON (Biocide No. 5, a nematicide and soil insecticide).
This test was also identical to that in the preceding two examples, except that the biocide was malathion (No. 7, an insecticide).
This test was identical to the preceding ones, except the biocide was DPX-43898 (No. 6, active ingredient in FORTRESS® insecticide, a soil insecticide). Also, the observation time was fourteen (14) days after PPI initiation.

Velvetleaf (VELE) [4] = format: in vivo, Abutilon theophrasti
Corn [5] = system: Corn; remark: listed apart in the source
Shattercane (SHCA) = format: in vivo
[6] = Herb. […], PPI, 13 days after planting
[7] = Herbicide No. 21 0.0175 Kg/Ha PPI alone, Table 23
[8] = Herbicide No. 21 0.0175 Kg/Ha PPI alone, Table 24
[9] = Herbicide No. 21 0.0175 Kg/Ha PPI alone, Table 25
[10] = Herbicide No. 21 0.0175 Kg/Ha PPI alone, Table 26
[11] = 312 h, Herb. No. 21 0.14 kg/Ha alone, PPI, 13 days after planting
[12] = 312 h, Table 51, Herbicide No. 21 0.14 Kg/Ha, where applied Biocide No. 8 8.96 kg/Ha and antidote 4.48 Kg/Ha, all PPI, observed 13 days after treatment
[13] = 312 h, PPI, 13 days after PPI (Table 31)
[14] = 336 h, PPI, 14 days after PPI (Table 34)
[15] = XRD-498 0.02 Kg/Ha PPI alone, 13 days after treatment
[16] = […], PPI, 13 days after PPI (Table 31)
[17] = […], PPI, 14 days after PPI (Table 34)
[18] = 312 h, Table 51, Herbicide No. 18 0.14 Kg/Ha, where applied Biocide No. 8 8.96 kg/Ha and antidote 4.48 Kg/Ha, all PPI, observed 13 days after treatment
[19] = Herbicide No. 18 0.0175 Kg/Ha POE alone, Table 17
[20] = Herbicide No. 18 0.0175 Kg/Ha POE alone, Table 18
[21] = no antidote, […], observed 10 days after herbicide application
[22] = Herbicide No. 18 alone, POE 5 DAP, observed 13 DAP

Cc1ccn2nc(S(=O)(=O)Nc3c(F)cccc3F)nc2n1 [Herbicide No. 21, 5-Methyl-N-(2,6-difluorophenyl)-1,2,4-triazolo[1,5-a]pyrimidine-2-sulfonamide, reference compound]
% Inhibition GIFT (Giant foxtail (GIFT); [6]): 95%
% Inhibition GIFT (Giant foxtail (GIFT); [7]): 0%
% Inhibition GIFT (Giant foxtail (GIFT); [8]): 0%
% Inhibition GIFT (Giant foxtail (GIFT); [9]): 0%
% Inhibition GIFT (Giant foxtail (GIFT); [10]): 0%
inhibition at 140 g/ha (Giant foxtail (GIFT); [11]): 40%
inhibition at 140 g/ha (Giant foxtail (GIFT); [12]): 70%
inhibition at 20 g/ha (Giant foxtail (GIFT); [13]): 30%
inhibition at 20 g/ha (Giant foxtail (GIFT); [14]): 35%
% Inhibition GIFT (Giant foxtail (GIFT); [15]): 25%
% Inhibition GIFT (Giant foxtail (GIFT); [16]): 75%
% Inhibition GIFT (Giant foxtail (GIFT); [17]): 65%
% Inhibition GIFT (Giant foxtail (GIFT); in vivo): 60% and 75% and 90%
% Inhibition Corn (Corn [1]; [6]): 75%
% Inhibition Corn (Corn [1]; [7]): 0%
% Inhibition Corn (Corn [1]; [8]): 0%
% Inhibition Corn (Corn [1]; [9]): 0%
% Inhibition Corn (Corn [1]; [10]): 5%
% Inhibition Corn (Corn [1]; [15]): 15%
corn injury (Corn [1]; XRD-498 with OP insecticides, Examples 24-27): 30-55%
corn injury (Corn [1]; XRD-498 without insecticide, Examples 24-27): 0-5%
% Inhibition Corn (Corn [1]; [16]): 70%
% Inhibition Corn (Corn [1]; [17]): 75%
corn injury (Corn [1]; herbicide used in conjunction with COUNTER, Tables 29-37): 55-70%
corn injury (Corn [1]; herbicide without COUNTER, Tables 29-37): 0-5%
% Inhibition Corn (Corn [1]; in vivo): 50% and 30% and 55%
% Inhibition Corn (Corn [1]; in vivo, listed as XRD-498): 75%
inhibition at 140 g/ha (Corn [2]; 312 h, read-out: % Inhibition Corn, Herb. No. 21 0.14 kg/Ha alone, PPI, 13 days after planting): 5%
inhibition at 140 g/ha (Corn [2]; 312 h, read-out: % Inhibition Corn, Table 51, Herbicide No. 21 0.14 Kg/Ha, where applied Biocide No. 8 8.96 kg/Ha and antidote 4.48 Kg/Ha, all PPI, observed 13 days after treatment): 10%
inhibition at 140 g/ha (Corn [2]; 312 h, read-out: % Inhibition Corn, Table 52, Herbicide No. 21 0.14 Kg/Ha, where applied Biocide No. 5 8.96 kg/Ha and antidote 4.48 Kg/Ha, all PPI, observed 13 days after treatment): 5%
inhibition at 140 g/ha (Corn [2]; 312 h, read-out: % Inhibition Corn, Table 53, Herbicide No. 21 0.14 Kg/Ha, where applied Biocide No. 7 8.96 kg/Ha and antidote 4.48 Kg/Ha, all PPI, observed 13 days after treatment): 10%
inhibition at 20 g/ha (Corn [2]; [13]): 5%
inhibition at 140 g/ha (Corn [2]; 336 h, read-out: % Inhibition Corn, Table 54, Herbicide No. 21 0.14 Kg/Ha, where applied Biocide No. 6 8.96 kg/Ha and antidote 4.48 Kg/Ha, all PPI, observed 14 days after PPI initiation): 10%
inhibition at 20 g/ha (Corn [2]; [14]): 20%
inhibition at 140 g/ha (Velvetleaf (VELE) [3]; [11]): 75%
inhibition at 140 g/ha (Velvetleaf (VELE) [3]; [12]): 80%
inhibition at 140 g/ha (Velvetleaf (VELE) [3]; 312 h, Table 52, Herbicide No. 21 0.14 Kg/Ha, where applied Biocide No. 5 8.96 kg/Ha and antidote 4.48 Kg/Ha, all PPI, observed 13 days after treatment): 80%
inhibition at 140 g/ha (Velvetleaf (VELE) [3]; 312 h, Table 53, Herbicide No. 21 0.14 Kg/Ha, where applied Biocide No. 7 8.96 kg/Ha and antidote 4.48 Kg/Ha, all PPI, observed 13 days after treatment): 85%
inhibition at 20 g/ha (Velvetleaf (VELE) [3]; [13]): 80%
inhibition at 140 g/ha (Velvetleaf (VELE) [3]; 336 h, Table 54, Herbicide No. 21 0.14 Kg/Ha, where applied Biocide No. 6 8.96 kg/Ha and antidote 4.48 Kg/Ha, all PPI, observed 14 days after PPI initiation): 85%
inhibition at 20 g/ha (Velvetleaf (VELE) [3]; [14]): 80%
% Inhibition VELE (Velvetleaf (VELE) [3]; [7]): 60%
% Inhibition VELE (Velvetleaf (VELE) [3]; [8]): 45%
% Inhibition VELE (Velvetleaf (VELE) [3]; [9]): 60%
% Inhibition VELE (Velvetleaf (VELE) [3]; [10]): 50%
% Inhibition VELE (Velvetleaf (VELE) [3]; [15]): 90%
% Inhibition VELE (Velvetleaf (VELE) [3]; [17]): 90%
% Inhibition VELE (Velvetleaf (VELE) [3]; in vivo): 70% and 75%
% Inhibition VELE (Velvetleaf (VELE) [3]; in vivo, listed as XRD-498): 90%
inhibition at 140 g/ha (SJCA; 312 h, Table 52, Herbicide No. 21 0.14 Kg/Ha, where applied Biocide No. 5 8.96 kg/Ha and antidote 4.48 Kg/Ha, observed 13 days after treatment): 70%
inhibition at 140 g/ha (SJCA; 312 h, Table 53, Herbicide No. 21 0.14 Kg/Ha, where applied Biocide No. 7 8.96 kg/Ha and antidote 4.48 Kg/Ha, observed 13 days after treatment): 75%
inhibition at 140 g/ha (SJCA; 336 h, Table 54, Herbicide No. 21 0.14 Kg/Ha, where applied Biocide No. 6 8.96 kg/Ha and antidote 4.48 Kg/Ha, observed 14 days after PPI initiation): 60%

CC(C)C1(C)N=C(c2ncccc2C(=O)O)NC1=O (stereo not drawn) [Herbicide No. 18, 3-Pyridinecarboxylic acid, 2-[4,5-dihydro-4-methyl-4-(1-methylethyl)-5-oxo-1H-imidazol-2-yl]-, reference compound]
inhibition at 140 g/ha (Giant foxtail (GIFT); [18]): 75%
% Inhibition VELE (Velvetleaf (VELE) [4]; [19]): 80%
% Inhibition VELE (Velvetleaf (VELE) [4]; [20]): 85%
% Inhibition VELE (Velvetleaf (VELE) [4]; in vivo): 80%
% Inhibition VELE (Velvetleaf (VELE) [4]; [21]): 80%
inhibition at 140 g/ha (Corn [2]; 312 h, read-out: % Inhibition Corn, Table 51, Herbicide No. 18 0.14 Kg/Ha, where applied Biocide No. 8 8.96 kg/Ha and antidote 4.48 Kg/Ha, all PPI, observed 13 days after treatment): 15%
inhibition at 140 g/ha (Corn [2]; 312 h, read-out: % Inhibition Corn, Table 52, Herbicide No. 18 0.14 Kg/Ha, where applied Biocide No. 5 8.96 kg/Ha and antidote 4.48 Kg/Ha, all PPI, observed 13 days after treatment): 10%
inhibition at 140 g/ha (Corn [2]; 312 h, read-out: % Inhibition Corn, Table 53, Herbicide No. 18 0.14 Kg/Ha, where applied Biocide No. 7 8.96 kg/Ha and antidote 4.48 Kg/Ha, all PPI, observed 13 days after treatment): 15%
inhibition at 140 g/ha (Corn [2]; 336 h, read-out: % Inhibition Corn, Table 54, Herbicide No. 18 0.14 Kg/Ha, where applied Biocide No. 6 8.96 kg/Ha and antidote 4.48 Kg/Ha, all PPI, observed 14 days after PPI initiation): 15%
% Inhibition Corn (Corn [5]; [19]): 15%
% Inhibition Corn (Corn [5]; [20]): 10%
% Inhibition Corn (Corn [5]; [22]): 5%
% Inhibition SHCA (Shattercane (SHCA); [19]): 65%
% Inhibition SHCA (Shattercane (SHCA); [20]): 45%
% Inhibition SHCA (Shattercane (SHCA); [22]): 20%
% Inhibition SHCA (Shattercane (SHCA); Table 50, Herbicide No. 18 0.017 Kg/Ha POE, where applied Biocide No. 8 8.96 kg/Ha and antidote 4.48 Kg/Ha PPI, observed 9 days after POE): 40%
% Inhibition SHCA (Shattercane (SHCA); [21]): 60%
inhibition at 140 g/ha (Velvetleaf (VELE) [3]; [18]): 65%
inhibition at 140 g/ha (Velvetleaf (VELE) [3]; 312 h, Table 52, Herbicide No. 18 0.14 Kg/Ha, where applied Biocide No. 5 8.96 kg/Ha and antidote 4.48 Kg/Ha, all PPI, observed 13 days after treatment): 75%
inhibition at 140 g/ha (Velvetleaf (VELE) [3]; 336 h, Table 54, Herbicide No. 18 0.14 Kg/Ha, where applied Biocide No. 6 8.96 kg/Ha and antidote 4.48 Kg/Ha, all PPI, observed 14 days after PPI initiation): 70%
inhibition at 140 g/ha (SJCA; 312 h, Table 52, Herbicide No. 18 0.14 Kg/Ha, where applied Biocide No. 5 8.96 kg/Ha and antidote 4.48 Kg/Ha, observed 13 days after treatment): 75%
inhibition at 140 g/ha (SJCA; 312 h, Table 53, Herbicide No. 18 0.14 Kg/Ha, where applied Biocide No. 7 8.96 kg/Ha and antidote 4.48 Kg/Ha, observed 13 days after treatment): 70%
inhibition at 140 g/ha (SJCA; 336 h, Table 54, Herbicide No. 18 0.14 Kg/Ha, where applied Biocide No. 6 8.96 kg/Ha and antidote 4.48 Kg/Ha, observed 14 days after PPI initiation): 75%
